{"source": "patent US8216782B2", "about": "“PTTG1 as a biomarker for cancer treatment” (Cedars-Sinai Medical Center, priority 2008, dated 2012)", "format_in_all_cases": "cell-based", "key": {"HCT116 PTTG1−/− cells [1]": {"system": "HCT116 PTTG1−/− cells", "assay": "WST-1 cell proliferation assay", "details": "for sensitivity of PTTG1−/− cell growth versus WT (WST-1): PTTG1−/− vs WT HCT116 cells", "procedure": "(§1) FIG. 4 depicts that PTTG1 regulates cell response to Aurora Kinase inhibition, in accordance with an embodiment of the present invention. (A) PTTG1^−/− cell proliferation was attenuated in response to Aurora Kinase A siRNA (mean±S.D., n=3. P<0.05 vs WT). Cells were seeded into 96-well plates, cultured overnight, and then transfected with siRNAs (100 nM). After 72 hours, premixed WST-1 cell proliferation reagent (10 ul) was added to each well. Cells were incubated for a further four hours and shaken thoroughly for one minute before measurement. […] Cells were seeded into 96-well plates, cultured overnight, and then treated with drug as indicated for 48 hours. Viable cells were measured using Premixed WST-1 cell proliferation reagent. (C) Anchorage-dependent colony formation assay was performed as described herein. […] (mean±S.D., n=3. P<0.05 vs WT) (D) Western blot showing that over-expressed PTTG1 rescued PTTG1^−/− sensitivity to Aurora Kinase inhibitor III (12.5 uM) (mean±S.D., n=3. P>0.05 vs WT); PTTG1 knock-down enhanced WT cell sensitivity to Aurora Kinase inhibitor III (12.5 uM) (mean±S.D., n=3. P>0.05 vs PTTG1^−/−). PTTG1^−/−=PTTG1-null or KO cells.\n(§2) Cell proliferation was evaluated using WST-1 cell proliferation reagent (obtained from Clontech Laboratories, Inc.; Mountain View, Calif.). Briefly, 90 μl cells were seeded into 96-well plates and cultured overnight, treated with drugs for 48 hours, and 10 μl premixed WST-1 cell proliferation reagent added. Cells were incubated for a further four hours, shaken and absorbance measured at 450 nm using a Victor 3 multiwell plate reader (obtained from PerkinElmer, Inc.; Waltham, Mass.). Cell viability rate was calculated for each well as A450 treated cells/A450 control cells×100% (A450: OD value at 450 nm)."}, "HCT116 WT cells": {"system": "HCT116 WT cells", "assay": "WST-1 cell proliferation assay", "procedure": "as §1, §2"}, "HCT116 PTTG1−/− cells [2]": {"system": "HCT116 PTTG1−/− cells", "assay": "Anchorage-dependent colony formation assay", "details": "PTTG1−/− vs WT HCT116 cells", "procedure": "Briefly, 20,000 cells were plated in a six-well culture dish, allowed to attach overnight and treated with depicted drug concentrations. Cells were cultured in standard culture medium containing indicated treatments for twelve days and medium re-freshened every three days. Colonies were stained with 0.5% crystal violet in methanol/acetic acid (3:1) and those composed of >50 cells were counted."}, "HCT116 PTTG1−/− cells [3]": {"system": "HCT116 PTTG1−/− cells", "assay": "BrdU incorporation assay", "procedure": "The BrdU incorporation assay was carried out using a commercial kit. Briefly, culture cells in 96-well microplates in a final volume of 100 ul culture medium per well. After treatment, add 10 ul BrdU labeling solution per well (final concentration: 10 uM BrdU) and incubate for 2-18 h at 37° C. Carefully remove the culture medium and wash cells twice with 250 ul wash medium containing 10% serum per well. Cells fixed and treated with nucleases working solution for 30 min at 37° C. The incorporated BrdU is detected using anti-BrdU-POD, Fab fragments and peroxidase substrate ABTS. The absorbances of the samples are measured at 405 nm against the background control, using a Victor 3 multiwell plate reader."}}}
{"molecule": "COc1cc2ncnc(Nc3ccc(NC(=O)c4ccccc4)cc3)c2cc1OC", "note": "[Aurora Kinase Inhibitor II, 4-(4′-Benzamidoanilino)-6,7-dimethoxyquinazoline]", "values": [{"measurement": "sensitivity of PTTG1−/− cell growth versus WT (WST-1)", "setting": "HCT116 PTTG1−/− cells [1]", "result": "more susceptible than WT cells"}]}
{"molecule": "O=C(Nc1cccc(Nc2nccc(Nc3cccc(C(F)(F)F)c3)n2)c1)C1CC1", "note": "[Aurora Kinase Inhibitor III, Cyclopropanecarboxylic acid-(3-(4-(3-trifluoromethyl-phenylamino)-pyrimidin-2-ylamino)-phenyl)-amide]", "values": [{"measurement": "viability at 12.5 µM", "setting": "HCT116 WT cells; Homo sapiens, HCT-116, WT cells, 12.5 uM for 48 h, read-out: cells remaining viable", "result": 73, "unit": "%"}, {"measurement": "effect on the WT versus PTTG1−/− difference in response to doxorubicin", "setting": "HCT116 PTTG1−/− cells [1]; 3 μM inhibitor pre-incubation or siRNA, 0.63 μM doxorubicin", "result": "abolished the different response"}, {"measurement": "viability at 12.5 µM", "setting": "HCT116 PTTG1−/− cells [1]; Homo sapiens, HCT-116, PTTG1-null HCT116 cells, 12.5 uM for 48 h, read-out: cells remaining viable", "result": 56, "unit": "%"}, {"measurement": "sensitivity of PTTG1−/− cell growth versus WT (WST-1)", "setting": "HCT116 PTTG1−/− cells [1]", "result": "more sensitive"}, {"measurement": "sensitivity of PTTG1−/− cells versus WT (colony formation)", "setting": "HCT116 PTTG1−/− cells [2]", "result": "more sensitive"}]}
{"molecule": "Nc1nc(Nc2ccc(S(N)(=O)=O)cc2)nn1C(=O)c1c(F)cccc1F", "note": "[Aurora Kinase/CDK inhibitor, 4-(5-Amino-1-(2,6-difluorobenzoyl)-1H-[1,2,4]triazol-3-ylamino)-benzenesulfonamide]", "values": [{"measurement": "sensitivity of PTTG1−/− cell growth versus WT (WST-1)", "setting": "HCT116 PTTG1−/− cells [1]", "result": "more susceptible than WT cells"}]}
{"molecule": "OO", "note": "[H2O2]", "values": [{"measurement": "sensitivity of PTTG1−/− cells to ROS-generating agents", "setting": "HCT116 PTTG1−/− cells [3]", "result": "enhanced sensitivity"}]}
{"molecule": "CC(=O)N[C@@H](CS)C(=O)O", "note": "[N-acetyl cysteine (NAC), N-acetyl cysteine]", "values": [{"measurement": "effect of ROS quencher on PTTG1−/− cell sensitivity to ROS-generating agents", "setting": "HCT116 PTTG1−/− cells [3]", "result": "rescue PTTG1−/− cells sensitivity"}]}
{"molecule": "S=C=NCCc1ccccc1", "note": "[PEITC, phenethyl isothiocyanate]", "values": [{"measurement": "sensitivity of PTTG1−/− cells to ROS-generating agents", "setting": "HCT116 PTTG1−/− cells [3]", "result": "enhanced sensitivity"}]}
{"molecule": "PTTG1 siRNA: siRNA 16706, SEQ. ID. NO.: 7 and 8, purchased from Ambion (chain 1 GUCUGUAAAGACCAAGGGA; chain 2 UCCCUUGGUCUUUACAGAC; listed as RNA, chemistry not given here; listed as Homo sapiens)", "values": [{"measurement": "effect of PTTG1 knock down on sensitivity to Aurora Kinase inhibitor III", "setting": "HCT116 WT cells; WT HCT116 cells, inhibitor III 12.5 uM", "result": "increased HCT116 cell sensitivity"}]}
